Measured values taken from article PMC12564265, “Navigating the Deep Eutectic Solvent Landscape: Experimental and Machine Learning Solubility Explorations of Syringic, p-Coumaric, and Caffeic Acids” (International Journal of Molecular Sciences, 2025).
Values joined by “and” are separate entries in the source; they are usually repeats but may differ in a detail not shown here. Equal values may be shown once.

Columns and labels:
[1] = Shake-flask solubility with spectrophotometric measurement in neat deep eutectic solvents; type: physicochemical
Experimental: (§1) In order to determine the solubility of the three studied phenolic acids in deep eutectic solvents, a very well-established shake-flask method coupled with spectrophotometric measurements was utilized. The initial procedure involved the preparation of various DESs, which was conducted by mixing their HBA and HBD counterparts in a glass vessel and heating the composition until the formation of a transparent, uniform liquid. […] For additional measurements, the DESs were mixed with water in varying proportions, creating aqueous DES systems. Saturated solutions of CAF, SYR, and COU were obtained by adding excess amounts of these compounds to test tubes containing either a neat deep eutectic solvent or its aqueous solution. Such samples were placed in the Orbital Shaker Incubator ES-20/60 from Biosan (Riga, Latvia) and heated for 24 h at 25 °C, 30 °C, 35 °C, and 40 °C (±0.1 °C) with simultaneous mixing at 60 rpm. Before measurements, the samples were filtered using a PTFE syringe filter from Qpore (Dallas, TX, USA) with a 0.22 μm pore size. In order to avoid possible precipitation of the saturated solutions at decreased temperatures, the test tubes, syringes, pipette tips, and filters were kept at a temperature identical to that of the samples. The spectrophotometric measurements required the preparation of calibration curves for the three APIs. This involved the preparation of a stock solution of each compound in methanol, which was later successfully diluted, and the obtained solutions of varying concentrations were measured using an A360 spectrophotometer from AOE Instruments (Shanghai, China). The wavelength range was set to 200-500 nm, and the resolution was 1 nm. The analytical wavelengths were determined to be 324 nm for caffeic acid, 273 nm for syringic acid, and 308 nm for p-coumaric acid. The final regression equations, obtained after averaging three distinct sets of measurements, are collected in Table 2 together with determination coefficients and limits of detection (LOD) and quantification (LOQ) for the calibration curves. The measurements of the samples were conducted with the same spectrophotometer and identical settings. Methanol was used for the dilution of the samples so that they could remain within the linearity range of the method. Complete spectra of the samples were recorded, but for the solubility determination, the absorbance values at a specific analytical wavelength were considered. These values were combined with the corresponding regression equations of the calibration curves and served for the calculation of the concentration of the three phenolic acids in the studied samples. The densities of such samples were also measured, and for this task 1 mL of each sample was weighed to a precision of 0.1 mg using an AS 110 R2.PLUS analytical balance from […] (Radom, Poland). The obtained densities enabled the calculation of mole fractions of CAF, SYR, and COU dissolved in the studied DESs. For each considered system, three distinct measurements were conducted, and the results were averaged.

[2] = Shake-flask solubility with spectrophotometric measurement in aqueous DES mixtures; type: physicochemical; conditions: Bet – GLY 1:2 + water
Experimental: as §1

O=C(O)C=Cc1ccc(O)cc1 [p-coumaric acid, 4-hydroxycinnamic acid] gave a Mole fraction solubility ([1]; neat DES Bet - DEG, HBA:HBD molar ratio 1:1, 25 °C) of 0.0490±0.0005 mole fraction, a Mole fraction solubility ([1]; neat DES Bet - DEG, HBA:HBD molar ratio 1:2, 25 °C) of 0.0639±0.0004 mole fraction and a Mole fraction solubility ([1]; neat DES Bet - DEG, HBA:HBD molar ratio 1:4, 25 °C) of 0.0575±0.0005 mole fraction. For the same compound, the Mole fraction solubility ([1]; neat DES Bet - ETG, HBA:HBD molar ratio 1:1, 25 °C) was 0.0323±0.0004 mole fraction, the Mole fraction solubility ([1]; neat DES Bet - ETG, HBA:HBD molar ratio 1:2, 25 °C) was 0.0351±0.0002 mole fraction and the Mole fraction solubility ([1]; neat DES Bet - GLY, HBA:HBD molar ratio 1:1, 25 °C) was 0.0670±0.0005 mole fraction. For the same compound, the Mole fraction solubility ([1]; neat DES Bet - GLY, HBA:HBD molar ratio 1:2, 25 °C) was 0.0898 mole fraction, the Mole fraction solubility ([1]; neat DES Bet - GLY, HBA:HBD molar ratio 1:2, 25 °C, listed as coumaric acid) was 0.0898±0.0003 mole fraction and the Mole fraction solubility ([1]; neat DES Bet - GLY, HBA:HBD molar ratio 1:4, 25 °C) was 0.0739±0.0004 mole fraction. It also gave a Mole fraction solubility ([1]; neat DES Bet - TEG, HBA:HBD molar ratio 1:1, 25 °C) of 0.0648±0.0006 mole fraction, a Mole fraction solubility ([1]; neat DES Bet - TEG, HBA:HBD molar ratio 1:2, 25 °C) of 0.0894±0.0005 mole fraction and a Mole fraction solubility ([1]; neat DES Bet - TEG, HBA:HBD molar ratio 1:4, 25 °C) of 0.0778±0.0005 mole fraction. The Mole fraction solubility ([1]; neat DES ChCl - DEG, HBA:HBD molar ratio 1:1, 25 °C) was 0.0644±0.0004 mole fraction, the Mole fraction solubility ([1]; neat DES ChCl - DEG, HBA:HBD molar ratio 1:2, 25 °C) was 0.0775±0.0005 mole fraction and the Mole fraction solubility ([1]; neat DES ChCl - ETG, HBA:HBD molar ratio 1:1, 25 °C) was 0.0387±0.0004 mole fraction. It also gave a Mole fraction solubility ([1]; neat DES ChCl - ETG, HBA:HBD molar ratio 1:2, 25 °C) of 0.0470±0.0003 mole fraction, a Mole fraction solubility ([1]; neat DES ChCl - ETG, HBA:HBD molar ratio 1:4, 25 °C) of 0.0411±0.0004 mole fraction and a Mole fraction solubility ([1]; neat DES ChCl - TEG, HBA:HBD molar ratio 1:2, 25 °C) of 0.0997 mole fraction. The Mole fraction solubility ([2]; x*DES 0.1, 25°C) was 0.0093±0.0001 mole fraction, the Mole fraction solubility ([2]; x*DES 0.1, 30°C) was 0.0116±0.0001 mole fraction and the Mole fraction solubility ([2]; x*DES 0.1, 35°C) was 0.0146±0.0001 mole fraction. For the same compound, the Mole fraction solubility ([2]; x*DES 0.1, 40°C) was 0.0188±0.0001 mole fraction, the Mole fraction solubility ([2]; x*DES 0.2, 25°C) was 0.0212±0.0003 mole fraction and the Mole fraction solubility ([2]; x*DES 0.2, 30°C) was 0.0261±0.0002 mole fraction. For the same compound, the Mole fraction solubility ([2]; x*DES 0.2, 35°C) was 0.0328±0.0003 mole fraction, the Mole fraction solubility ([2]; x*DES 0.2, 40°C) was 0.0429±0.0003 mole fraction and the Mole fraction solubility ([2]; x*DES 0.3, 25°C) was 0.0316±0.0004 mole fraction. For the same compound, the Mole fraction solubility ([2]; x*DES 0.3, 30°C) was 0.0385±0.0003 mole fraction, the Mole fraction solubility ([2]; x*DES 0.3, 35°C) was 0.0489±0.0004 mole fraction and the Mole fraction solubility ([2]; x*DES 0.3, 40°C) was 0.0631±0.0003 mole fraction. The Mole fraction solubility ([2]; x*DES 0.4, 25°C) was 0.0424±0.0005 mole fraction, the Mole fraction solubility ([2]; x*DES 0.4, 30°C) was 0.0510±0.0004 mole fraction and the Mole fraction solubility ([2]; x*DES 0.4, 35°C) was 0.0654±0.0004 mole fraction. It also gave a Mole fraction solubility ([2]; x*DES 0.4, 40°C) of 0.0850±0.0007 mole fraction, a Mole fraction solubility ([2]; x*DES 0.5, 25°C) of 0.0545±0.0003 mole fraction and a Mole fraction solubility ([2]; x*DES 0.5, 30°C) of 0.0655±0.0004 mole fraction. The Mole fraction solubility ([2]; x*DES 0.5, 35°C) was 0.0843±0.0006 mole fraction, the Mole fraction solubility ([2]; x*DES 0.5, 40°C) was 0.1107±0.0012 mole fraction and the Mole fraction solubility ([2]; x*DES 0.6, 25°C) was 0.0687±0.0004 mole fraction. For the same compound, the Mole fraction solubility ([2]; x*DES 0.6, 30°C) was 0.0827±0.0006 mole fraction, the Mole fraction solubility ([2]; x*DES 0.6, 35°C) was 0.1045±0.0009 mole fraction and the Mole fraction solubility ([2]; x*DES 0.6, 40°C) was 0.1410±0.0021 mole fraction. For the same compound, the Mole fraction solubility ([2]; x*DES 0.7, 25°C) was 0.0803±0.0006 mole fraction, the Mole fraction solubility ([2]; x*DES 0.7, 30°C) was 0.0972±0.0008 mole fraction and the Mole fraction solubility ([2]; x*DES 0.7, 35°C) was 0.1233±0.0020 mole fraction. The Mole fraction solubility ([2]; x*DES 0.7, 40°C) was 0.1617±0.0014 mole fraction, the Mole fraction solubility ([2]; x*DES 0.8, 25°C) was 0.0900±0.0007 mole fraction and the Mole fraction solubility ([2]; x*DES 0.8, 30°C) was 0.1117±0.0011 mole fraction. For the same compound, the Mole fraction solubility ([2]; x*DES 0.8, 35°C) was 0.1413±0.0023 mole fraction, the Mole fraction solubility ([2]; x*DES 0.8, 40°C) was 0.1818±0.0015 mole fraction and the Mole fraction solubility ([2]; x*DES 0.9, 25°C) was 0.0926 mole fraction and 0.0926±0.0006 mole fraction.
